Reference: patent US20050113450A1, “Antibacterial agents” (priority 2002, published 2005)
Values after ≈ are worked out from the molar mass of the structure shown.

Tested on: SA 9218
Test: MIC by standard agar dilution method
Type: cell-based
Conditions: Mueller Hinton agar, 10^4 to 10^5 cells per spot, incubated overnight at 35° C., lowest concentration that inhibits visible growth
Source text: The antibacterial agents of this invention have useful activity against a variety of organisms. The in vitro activity of compounds of this invention can be assessed by standard testing procedures such as the determination of minimum inhibitory concentration (MIC) by agar dilution as described in “Approved Standard. Methods for Dilution Antimicrobial Susceptibility Tests for Bacteria That Grow Aerobically”, 3rd. ed., published 1993 by the National Committee for Clinical Laboratory Standards, Villanova, Pa., USA. The in vitro MICs of test compounds were determined by a standard agar dilution method. A stock drug solution of each analog was prepared in the preferred solvent, usually DMSO:H2O (1:3). Serial 2-fold dilutions of each sample are made using 1.0 ml aliquots of sterile distilled water. To each 1.0 ml aliquot of drug was added 9 ml of molten Mueller Hinton agar medium. The drug-supplemented agar was mixed, poured into 15×100 mm petri dishes, and allowed to solidify and dry prior to inoculation. Vials of each of the test organisms are maintained frozen in the vapor phase of a liquid nitrogen freezer. Test cultures are grown overnight at 35° C. on the medium appropriate for the organism. Colonies are harvested with a sterile swab, and cell suspensions are prepared in Trypticase Soy broth (TSB) to equal the turbidity of a 0.5 McFarland standard. A 1:20 dilution of each suspension was made in TSB. The plates containing the drug supplemented agar are inoculated with a 0.001 ml drop of the cell suspension using a Steers replicator, yielding approximately 10^4 to 10^5 cells per spot. The plates are incubated overnight at 35° C. Following incubation the Minimum Inhibitory Concentration (MIC μg/ml), the lowest concentration of drug that inhibits visible growth of the organism, was read and recorded.

Compound	MIC [µg/mL]
O=C(Nc1ccc(-c2cccs2)cc1C(=O)O)c1ccc(S(=O)(=O)N2CCc3ccccc32)cc1	4 (≈ 7.93 µM)
CCCC(=O)c1ccc(NC(=O)c2ccc(S(=O)(=O)N3CCc4ccc(Cl)cc43)cc2)c(C(=O)O)c1	16 (≈ 30.4 µM)
O=C(Nc1ccc(C(=NO)c2ccccc2)cc1C(=O)O)c1ccc(S(=O)(=O)N2CCc3ccccc32)cc1	128 (≈ 236 µM)
CCON=C(c1ccccc1)c1ccc(NC(=O)c2ccc(S(=O)(=O)N3CCc4ccccc43)cc2)c(C(=O)O)c1	16 (≈ 28.1 µM)
CCON=C(c1ccc(NC(=O)c2ccc(S(=O)(=O)N3CCc4ccccc43)cc2)c(C(=O)O)c1)C(C)C	64 (≈ 119 µM)
O=C(Nc1ccc(I)cc1C(=O)O)c1ccc(S(=O)(=O)N2CCSC2)cc1	32 (≈ 61.7 µM)
O=C(Nc1ccc(I)cc1C(=O)O)c1ccc(S(=O)(=O)N2CC=CC2)cc1	32 (≈ 64.2 µM)
N#CC1(c2ccccc2)CCN(S(=O)(=O)c2ccc(C(=O)Nc3ccc(I)cc3C(=O)O)cc2)CC1	4 (≈ 6.5 µM)
COC(=O)CCCC(=O)c1ccc(NC(=O)c2cccc(S(=O)(=O)N3CCc4ccc(Cl)cc43)c2)c(C(=O)O)c1	64 (≈ 109 µM)
O=C(Nc1ccc(C(=O)C2CCCC2)cc1C(=O)O)c1cccc(S(=O)(=O)N2CCc3ccc(Cl)cc32)c1	32 (≈ 57.9 µM)
COC(=O)CCCC(=O)c1ccc(NC(=O)c2cccc(S(=O)(=O)N3CCSC3)c2)c(C(=O)O)c1	> 128
O=C(Nc1ccc(I)cc1C(=O)O)c1cccc(S(=O)(=O)N2CCSC2)c1	8 (≈ 15.4 µM)
O=C(Nc1ccc(I)cc1C(=O)O)c1cccc(S(=O)(=O)N2CC=CC2)c1	8 (≈ 16.1 µM)
O=C(Nc1ccc(I)cc1C(=O)O)c1cccc(S(=O)(=O)N2CCN(c3ccccn3)CC2)c1	32 (≈ 54 µM)
CCCCCC(=O)c1ccc(NC(=O)c2ccc(S(=O)(=O)N3CCc4ccc(Cl)cc43)cc2)c(C(=O)O)c1	8 (≈ 14.4 µM)
O=C(Nc1ccc(C(=O)C2CCCC2)cc1C(=O)O)c1ccc(S(=O)(=O)N2CCc3ccc(Cl)cc32)cc1	16 (≈ 28.9 µM)
O=C(Nc1ccc(Cl)cc1C(=O)O)c1cccc(I)c1	8 (≈ 19.9 µM)
O=C(Nc1ccc(Cl)cc1C(=O)O)c1ccc(I)cc1	2 (≈ 4.98 µM)
O=C(Nc1ccc(Cl)cc1C(=O)O)c1ccc(I)c(I)c1	2 (≈ 3.79 µM)
O=C(Nc1ccc(Cl)cc1C(=O)O)c1ccccc1	128 (≈ 464 µM)
O=C(Nc1ccc(Cl)cc1C(=O)O)c1ccc(C(=O)c2ccccc2)cc1	4 (≈ 10.5 µM)
CCCCCC(=O)c1cccc(C(=O)Nc2ccc(Cl)cc2C(=O)O)c1	8 (≈ 21.4 µM)

Compound	MIC [µg/mL]
CCCCCC(=O)c1ccc(C(=O)Nc2ccc(Cl)cc2C(=O)O)cc1	4 (≈ 10.7 µM)
COc1cc(C(=O)c2cccc(C(=O)Nc3ccc(Cl)cc3C(=O)O)c2)cc(OC)c1OC	32 (≈ 68.1 µM)
O=C(Nc1ccc(Cl)cc1C(=O)O)c1cccc(C(=O)c2ccc(Cl)cc2)c1	4 (≈ 9.66 µM)
O=C(Nc1ccc(Cl)cc1C(=O)O)c1cccc(C(=O)C2CCCC2)c1	8 (≈ 21.5 µM)
COc1ccc(C(=O)c2cccc(C(=O)Nc3ccc(Cl)cc3C(=O)O)c2)cc1	8 (≈ 19.5 µM)
O=C(Nc1ccc(Cl)cc1C(=O)O)c1cccc(C(=O)c2ccco2)c1	8 (≈ 21.6 µM)
O=C(COc1ccc(Cl)cc1)c1cccc(C(=O)Nc2ccc(Cl)cc2C(=O)O)c1	8 (≈ 18 µM)
CN(C)c1ccc(C(=O)c2cccc(C(=O)Nc3ccc(Cl)cc3C(=O)O)c2)cc1	4 (≈ 9.46 µM)
O=C(Nc1ccc(Cl)cc1C(=O)O)c1cccc(C(=O)c2ccc3c(c2)OCO3)c1	4 (≈ 9.44 µM)
COc1ccc(C(=O)c2ccc(C(=O)Nc3ccc(Cl)cc3C(=O)O)cc2)cc1	2 (≈ 4.88 µM)
COc1cc(C(=O)c2ccc(C(=O)Nc3ccc(Cl)cc3C(=O)O)cc2)cc(OC)c1OC	4 (≈ 8.51 µM)
O=C(COc1ccc(Cl)cc1)c1ccc(C(=O)Nc2ccc(Cl)cc2C(=O)O)cc1	4 (≈ 9 µM)
O=C(Nc1ccc(Cl)cc1C(=O)O)c1ccc(C(=O)c2ccc(Cl)cc2)cc1	4 (≈ 9.66 µM)
Cl.NCc1ccc(C(=O)Nc2ccc(Br)cc2C(=O)O)cc1S(=O)(=O)N1CCc2ccccc21	> 128
O=C(Nc1ccc(Cl)cc1C(=O)O)c1ccc(C(=O)c2ccco2)cc1	4 (≈ 10.8 µM)
CCCCCOc1cccc(C(=O)Nc2ccc(Br)cc2C(=O)O)c1	8 (≈ 19.7 µM)
O=C(Nc1ccc(Cl)cc1C(=O)O)c1ccc(C(=O)c2ccc3c(c2)OCO3)cc1	2 (≈ 4.72 µM)
CC(C)Oc1cccc(C(=O)Nc2ccc(Br)cc2C(=O)O)c1	2 (≈ 5.29 µM)
CN(C)c1ccc(C(=O)c2ccc(C(=O)Nc3ccc(Cl)cc3C(=O)O)cc2)cc1	16 (≈ 37.8 µM)
CCCCCOc1ccc(C(=O)Nc2ccc(Br)cc2C(=O)O)cc1	16 (≈ 39.4 µM)
CC(C)Oc1ccc(C(=O)Nc2ccc(Br)cc2C(=O)O)cc1	64 (≈ 169 µM)
Nc1ccc(CCNS(=O)(=O)c2ccc(C(=O)Nc3ccc(Br)cc3C(=O)O)cc2)cc1	64 (≈ 123 µM)

Compound	MIC [µg/mL]
C=CCOc1cccc(C(=O)Nc2ccc(Br)cc2C(=O)O)c1	8 (≈ 21.3 µM)
COc1ccc(C(=O)Nc2ccc(Br)cc2C(=O)O)cc1S(=O)(=O)NC1Cc2ccccc2C1	2 (≈ 3.67 µM)
O=C(Nc1ccc(Br)cc1C(=O)O)c1ccc(OCc2ccccc2)cc1	16 (≈ 37.5 µM)
O=C(Nc1ccc(Br)cc1C(=O)O)c1cccc(S(=O)(=O)NC2Cc3ccccc3C2)c1	1 (≈ 1.94 µM)
Cc1ccc(C(=O)Nc2ccc(Br)cc2C(=O)O)cc1S(=O)(=O)NCCc1ccc(N)cc1	8 (≈ 15 µM)
Cc1ccc(C(=O)Nc2ccc(Br)cc2C(=O)O)cc1S(=O)(=O)N1CCN(c2cccc(C(F)(F)F)c2)CC1	16 (≈ 25.5 µM)
Cc1ccc(C(=O)Nc2ccc(Br)cc2C(=O)O)cc1S(=O)(=O)NC1Cc2ccccc2C1	0.25 (≈ 0.472 µM)
O=C(Nc1ccc(Br)cc1C(=O)O)c1cccc(S(=O)(=O)N2CCN(c3cccc(C(F)(F)F)c3)CC2)c1	16 (≈ 26.1 µM)
O=C(Nc1ccc(Br)cc1C(=O)O)c1cc(S(=O)(=O)NC2Cc3ccccc3C2)ccc1Br	0.25 (≈ 0.421 µM)
COc1ccc(C(=O)Nc2ccc(Br)cc2C(=O)O)cc1S(=O)(=O)N1CCN(c2ccc(Cl)cc2)CC1	8 (≈ 13.1 µM)
CCN(Cc1ccncc1)S(=O)(=O)c1ccc(C)c(C(=O)Nc2ccc(Br)cc2C(=O)O)c1	> 128
COc1cc(COc2cccc(C(=O)Nc3ccc(Br)cc3C(=O)O)c2)cc(OC)c1	16 (≈ 32.9 µM)
COC(=O)C(Oc1ccc(C(=O)Nc2ccc(Br)cc2C(=O)O)cc1)c1ccccc1 (stereo not drawn)	64 (≈ 132 µM)
O=C(NCCOc1ccc(C(=O)Nc2ccc(Br)cc2C(=O)O)cc1)OCc1ccccc1	64 (≈ 125 µM)
COc1cc(COc2ccc(C(=O)Nc3ccc(Br)cc3C(=O)O)cc2)cc(OC)c1	8 (≈ 16.5 µM)
Cc1ccc(S(=O)(=O)Nc2cccc(C(=O)Nc3ccc(Br)cc3C(=O)O)c2)cc1	0.5 (≈ 1.02 µM)
Cc1ncsc1CCOc1ccc(C(=O)Nc2ccc(Br)cc2C(=O)O)cc1	32 (≈ 69.4 µM)
O=C(Nc1ccc(Br)cc1C(=O)O)c1ccc(OCCN2CCCC2=O)cc1	> 128
O=C(Nc1ccc(Cl)cc1C(=O)O)c1ccc(C(=NOCc2ccccc2)c2ccco2)cc1	32 (≈ 67.4 µM)
O=C(Nc1ccc(Br)cc1C(=O)O)c1ccc(OCC2CCOC2)cc1 (stereo not drawn)	128 (≈ 305 µM)
O=C(Nc1ccc(Cl)cc1C(=O)O)c1cccc(C(NCc2cccc(Cl)c2)c2ccco2)c1 (stereo not drawn)	8 (≈ 16.1 µM)
O=C(Nc1ccc(Cl)cc1C(=O)O)c1cccc(C(NCc2cccc(Cl)c2)c2ccccc2)c1 (stereo not drawn)	16 (≈ 31.7 µM)

Compound	MIC [µg/mL]
CON=C(c1cccc(C(=O)Nc2ccc(Cl)cc2C(=O)O)c1)c1ccco1	16 (≈ 40.1 µM)
O=C(Nc1ccc(Cl)cc1C(=O)O)c1cccc(C(NC2CCc3ccccc32)c2ccccc2)c1 (stereo not drawn)	16 (≈ 32.2 µM)
CCC(CC)C(=O)c1cccc(C(=O)Nc2ccc(Cl)cc2C(=O)O)c1	8 (≈ 21.4 µM)
CCCNC(c1cccc(C(=O)Nc2ccc(Cl)cc2C(=O)O)c1)c1ccco1 (stereo not drawn)	16 (≈ 38.8 µM)
O=C(Nc1ccc(Cl)cc1C(=O)O)c1cccc(C(=O)C2CCOC2)c1 (stereo not drawn)	128 (≈ 342 µM)
CCCNC(c1ccccc1)c1cccc(C(=O)Nc2ccc(Cl)cc2C(=O)O)c1 (stereo not drawn)	8 (≈ 18.9 µM)
O=C(Nc1ccc(Cl)cc1C(=O)O)c1cccc(C(=NO)c2cccnc2)c1	4 (≈ 10.1 µM)
O=C(Nc1ccc(Cl)cc1C(=O)O)c1cccc(C(NC2CCCC2)c2ccccc2)c1 (stereo not drawn)	4 (≈ 8.91 µM)
CCCNC(c1cccc(C#N)c1)c1cccc(C(=O)Nc2ccc(Cl)cc2C(=O)O)c1 (stereo not drawn)	8 (≈ 17.9 µM)
O=C(Nc1ccc(Cl)cc1C(=O)O)c1cccc(C(=O)C2CCCO2)c1 (stereo not drawn)	64 (≈ 171 µM)
CCCNC(c1cccc(C(=O)Nc2ccc(Cl)cc2C(=O)O)c1)c1cccc(S(C)(=O)=O)c1 (stereo not drawn)	32 (≈ 63.9 µM)
CS(=O)(=O)c1cccc(C(=O)c2cccc(C(=O)Nc3ccc(Cl)cc3C(=O)O)c2)c1	16 (≈ 34.9 µM)
CCC(CC)C(=O)c1ccc(C(=O)Nc2ccc(Cl)cc2C(=O)O)cc1	4 (≈ 10.7 µM)
O=C(Nc1ccc(Cl)cc1C(=O)O)c1cccc(C(=NO)C2CCCO2)c1 (stereo not drawn)	16 (≈ 41.2 µM)
O=C(Nc1ccc(Cl)cc1C(=O)O)c1ccc(C(=O)c2c[nH]c3ccccc23)cc1	8 (≈ 19.1 µM)
CCCNC(c1cccnc1)c1cccc(C(=O)Nc2ccc(Cl)cc2C(=O)O)c1 (stereo not drawn)	8 (≈ 18.9 µM)
N#Cc1cccc(C(=NO)c2ccc(C(=O)Nc3ccc(Cl)cc3C(=O)O)cc2)c1	8 (≈ 19.1 µM)
O=C(Nc1ccc(Cl)cc1C(=O)O)c1ccc(C(=NO)c2cccnc2)cc1	32 (≈ 80.8 µM)
CCOCC(=O)c1ccc(C(=O)Nc2ccc(Cl)cc2C(=O)O)cc1	16 (≈ 44.2 µM)
CS(=O)(=O)c1cccc(C(=NO)c2ccc(C(=O)Nc3ccc(Cl)cc3C(=O)O)cc2)c1	16 (≈ 33.8 µM)
CS(=O)(=O)c1cccc(C(=O)c2ccc(C(=O)Nc3ccc(Cl)cc3C(=O)O)cc2)c1	32 (≈ 69.9 µM)
